Assay results published in patent publication US20130158362A1 (INFACARE PHARMACEUTICAL CORPORATION, priority 2011, published 2013).

System: total serum bilirubin (TSB)
Assay: Phase 2b trial: total serum bilirubin (TSB), adjusted and unadjusted, change from baseline
Format: in vivo, human
Set-up: total serum bilirubin / total serum bilirubin, Delta (change from baseline) / Change from baseline of total serum bilirubin: unit not given here
Conditions: for change from baseline in unadjusted TSB, Mean (SD) / change from baseline in unadjusted TSB, Median / unadjusted TSB, Mean (SD) / unadjusted TSB, Median / change from baseline in adjusted TSB, LS mean (SEM) / change from baseline in adjusted TSB, LS mean difference versus placebo / change from baseline in unadjusted TSB, LS Mean (SEM) / change from baseline in unadjusted TSB, LS Mean Difference versus placebo / adjusted TSB, Mean (SD) / change from baseline in adjusted TSB, Mean (SD) / change from baseline in adjusted TSB, Median / change from baseline in adjusted TSB, LS mean difference versus placebo, MMRM / change from baseline in adjusted TSB, LS means (SEM), MMRM: ITT; for Change from baseline of total serum bilirubin: 4.5 mg/kg (N = 5); for change from baseline in adjusted TSB, LS mean difference versus placebo, MMRM / change from baseline in adjusted TSB, LS means (SEM), MMRM: observed case
Protocol: Three cohorts of subjects were recruited. This clinical study was designed to evaluate safety and efficacy parameters in each cohort.
Scheduled assessments (including TSB) occurred before treatment and at 0.75 and 2 hours (or 1.5 and 3 hours, depending on PK blood sampling assignment); 6, 12, 24, 48, and 72 hours; and 14 and 30 (except TSB) days after treatment or early termination.
The primary efficacy endpoint was the change in adjusted TSB from baseline to 48 hours after treatment. The adjusted TSB was a calculation of the percentage variance of the TSB level from the age specific threshold for PT initiation per the AAP Guidelines, i.e., an indication of the distance below the PT threshold by time.
The Secondary Efficacy Endpoints were the change from baseline in unadjusted TSB at 48 hours after treatment, change from baseline in adjusted and unadjusted TSB at various other time points after treatment, percent change from baseline in unadjusted TSB, proportion of subjects who require PT/exchange transfusion (ET), time to PT/ET, duration of PT and time to hospital discharge.
Intent-to-treat population (ITT): Defined as all subjects who were randomly assigned treatment in the clinical study, had received IMP, and had at least 1 post baseline TSB measurement during the first 48 hours after treatment. Subjects were summarized based on randomized treatment.
Analysis of Efficacy Parameters: The primary efficacy analysis applied the analysis of covariance (ANCOVA) method to determine if there was a significant difference between treatment groups in change in adjusted TSB levels from baseline to 48 hours post baseline after controlling for the effects of gestational age and adjusted baseline TSB levels. If assumptions of ANCOVA appeared to be violated, a Wilcoxon rank-sum test could be performed instead. Time-to-event variables were analyzed using the Kaplan-Meier method, and Kaplan-Meier survival curves were presented.

[1] = 3.0 mg/kg IM, 72 h, LOCF, ANCOVA
[2] = 3.0 mg/kg IM, 14 days/early termination, LOCF
[3] = 3.0 mg/kg IM, 14 days/early termination, LOCF, ANCOVA
[4] = 3.0 mg/kg versus the placebo group, 48 Hours/Early termination, PP Population, ANCOVA
[5] = 3.0 mg/kg, 48 Hours/Early termination, PP Population, LOCF
[6] = 3.0 mg/kg, 6 hrs, unadjusted TSB, ITT Population
[7] = 3.0 mg/kg, 12 hrs, unadjusted TSB, ITT Population
[8] = 3.0 mg/kg, 24 hrs, unadjusted TSB, ITT Population
[9] = 3.0 mg/kg, 48 hrs, unadjusted TSB, ITT Population
[10] = 3.0 mg/kg, baseline, PP Population
[11] = 3.0 mg/kg, baseline, unadjusted TSB, ITT Population
[12] = 4.5 mg/kg IM, 6 h, LOCF, ANCOVA
[13] = 4.5 mg/kg IM, 12 h, LOCF, ANCOVA

tin IV mesoporphyrin IX dichloride [Stannsoporfin]
change from baseline in unadjusted TSB, Mean (SD) (3.0 mg/kg IM, 72 h, LOCF): 1.66 (3.496) mg/dL
change from baseline in unadjusted TSB, Median (3.0 mg/kg IM, 72 h, LOCF): 2.45 mg/dL
unadjusted TSB, Mean (SD) (3.0 mg/kg IM, 72 h, LOCF): 9.87 (3.681) mg/dL
unadjusted TSB, Median (3.0 mg/kg IM, 72 h, LOCF): 10.70 mg/dL
change from baseline in adjusted TSB, LS mean (SEM) [1]: −19.28 (6.633) %
change from baseline in adjusted TSB, LS mean difference versus placebo [1]: −14.53%
change from baseline in unadjusted TSB, LS Mean (SEM) [1]: 2.77 (1.133) mg/dL
change from baseline in unadjusted TSB, LS Mean Difference versus placebo [1]: -2.18 mg/dL
change from baseline in unadjusted TSB, Mean (SD) [2]: −2.98 (5.389) mg/dL
change from baseline in unadjusted TSB, Median [2]: -4.80 mg/dL
unadjusted TSB, Mean (SD) [2]: 5.23 (5.123) mg/dL
unadjusted TSB, Median [2]: 3.40 mg/dL
change from baseline in unadjusted TSB, LS Mean (SEM) [3]: −2.42 (1.324) mg/dL
change from baseline in unadjusted TSB, LS Mean Difference versus placebo [3]: -0.12 mg/dL
48 Hours/Early termination change from baseline in unadjusted TSB, LS mean difference [4]: -1.74 mg/dL
P-value of LS mean difference, change from baseline in unadjusted TSB [4]: 0.078
48 Hours/Early termination change from baseline in unadjusted TSB, Max [5]: 5.4 mg/dL
48 Hours/Early termination change from baseline in unadjusted TSB, Mean (SD) [5]: 2.20 (2.928) mg/dL
48 Hours/Early termination change from baseline in unadjusted TSB, Median [5]: 2.87 mg/dL
48 Hours/Early termination change from baseline in unadjusted TSB, Min [5]: -3.4 mg/dL
48 Hours/Early termination unadjusted TSB, Max [5]: 13.8 mg/dL
48 Hours/Early termination unadjusted TSB, Mean (SD) [5]: 10.53 (2.911) mg/dL
48 Hours/Early termination unadjusted TSB, Median [5]: 11.60 mg/dL
48 Hours/Early termination unadjusted TSB, Min [5]: 4.2 mg/dL
48 Hours/Early termination change from baseline in unadjusted TSB, LS mean (SEM) (3.0 mg/kg, 48 Hours/Early termination, PP Population, LOCF, ANCOVA): 2.20 (0.881) mg/dL
6 hrs Percent Change from Baseline in TSB, Max [6]: 59.0%
6 hrs Percent Change from Baseline in TSB, Mean (SD) [6]: 19.54 (12.055) %
6 hrs Percent Change from Baseline in TSB, Min [6]: −2.6%
6 hrs TSB, Max [6]: 12.3 mg/dL
6 hrs TSB, Mean (SD) [6]: 9.74 (1.730) mg/dL
6 hrs TSB, Min [6]: 6.8 mg/dL
12 hrs Percent Change from Baseline in TSB, Max [7]: 73.8%
12 hrs Percent Change from Baseline in TSB, Mean (SD) [7]: 26.17 (15.650) %
12 hrs Percent Change from Baseline in TSB, Min [7]: 0.0%
12 hrs TSB, Max [7]: 12.2 mg/dL
12 hrs TSB, Mean (SD) [7]: 10.26 (1.748) mg/dL
12 hrs TSB, Min [7]: 6.9 mg/dL
24 hrs Percent Change from Baseline in TSB, Max [8]: 86.9%
24 hrs Percent Change from Baseline in TSB, Mean (SD) [8]: 24.84 (23.900) %
24 hrs Percent Change from Baseline in TSB, Median [8]: 23.00%
24 hrs Percent Change from Baseline in TSB, Min [8]: −11.8%
24 hrs TSB, Max [8]: 11.9 mg/dL
24 hrs TSB, Mean (SD) [8]: 10.06 (1.757) mg/dL
24 hrs TSB, Min [8]: 6.7 mg/dL
48 hrs Percent Change from Baseline in TSB, Max [9]: 88.5%
48 hrs Percent Change from Baseline in TSB, Mean (SD) [9]: 31.84 (36.062) %
48 hrs Percent Change from Baseline in TSB, Min [9]: −44.7%
48 hrs TSB, Max [9]: 14.1 mg/dL
48 hrs TSB, Mean (SD) [9]: 10.68 (2.956) mg/dL
48 hrs TSB, Min [9]: 4.2 mg/dL
mean TSB levels (3.0 mg/kg, 14 days after treatment (text, not LOCF table)): 5.23 mg/dL
Baseline unadjusted TSB, Max [10]: 10.4 mg/dL
Baseline unadjusted TSB, Mean (SD) [10]: 8.33 (1.585) mg/dL
Baseline unadjusted TSB, Median [10]: 8.90 mg/dL
Baseline unadjusted TSB, Min [10]: 6.0 mg/dL
Baseline TSB, Max [11]: 10.4 mg/dL
Baseline TSB, Mean (SD) [11]: 8.21 (1.577) mg/dL
Baseline TSB, Min [11]: 5.5 mg/dL
Change from baseline of total serum bilirubin (6 hours, preliminary data): 1.69 ± 0.50
Change from baseline of total serum bilirubin (24 hours, preliminary data): 0.93 ± 0.20
Change from baseline of total serum bilirubin (48 hours, preliminary data): 0.80 ± 2.79
total serum bilirubin (4.5 mg/kg IM (N = 5), 48 hours, treated per protocol, preliminary data): 9.88 ± 2.8
adjusted TSB, Mean (SD) (4.5 mg/kg IM, 6 h, LOCF): −4.49 (11.322) %
change from baseline in adjusted TSB, Mean (SD) (4.5 mg/kg IM, 6 h, LOCF): 4.70 (4.583) %
change from baseline in adjusted TSB, Median (4.5 mg/kg IM, 6 h, LOCF): 4.10%
change from baseline in unadjusted TSB, Mean (SD) (4.5 mg/kg IM, 6 h, LOCF): 1.69 (0.493) mg/dL
change from baseline in unadjusted TSB, Median (4.5 mg/kg IM, 6 h, LOCF): 1.61 mg/dL
unadjusted TSB, Mean (SD) (4.5 mg/kg IM, 6 h, LOCF): 11.27 (2.074) mg/dL
unadjusted TSB, Median (4.5 mg/kg IM, 6 h, LOCF): 11.25 mg/dL
change from baseline in adjusted TSB, LS mean (SEM) [12]: 4.03 (2.697) %
change from baseline in adjusted TSB, LS mean difference versus placebo [12]: −0.35%
change from baseline in unadjusted TSB, LS Mean (SEM) [12]: 1.62 (0.293) mg/dL
change from baseline in unadjusted TSB, LS Mean Difference versus placebo [12]: 0.03 mg/dL
change from baseline in adjusted TSB, LS mean difference versus placebo, MMRM (4.5 mg/kg IM, 6 h): −2.38%
change from baseline in adjusted TSB, LS means (SEM), MMRM (4.5 mg/kg IM, 6 h): 2.00 (2.825) %
adjusted TSB, Mean (SD) (4.5 mg/kg IM, 12 h, LOCF): −7.80 (9.906) %
change from baseline in adjusted TSB, Mean (SD) (4.5 mg/kg IM, 12 h, LOCF): 1.39 (6.394) %
change from baseline in adjusted TSB, Median (4.5 mg/kg IM, 12 h, LOCF): −0.70%
change from baseline in unadjusted TSB, Mean (SD) (4.5 mg/kg IM, 12 h, LOCF): 1.89 (0.421) mg/dL
change from baseline in unadjusted TSB, Median (4.5 mg/kg IM, 12 h, LOCF): 1.92 mg/dL
unadjusted TSB, Mean (SD) (4.5 mg/kg IM, 12 h, LOCF): 11.48 (1.924) mg/dL
unadjusted TSB, Median (4.5 mg/kg IM, 12 h, LOCF): 11.27 mg/dL
change from baseline in adjusted TSB, LS mean (SEM) [13]: 2.17 (3.960) %
change from baseline in adjusted TSB, LS mean difference versus placebo [13]: −4.96%
change from baseline in unadjusted TSB, LS Mean (SEM) [13]: 1.95 (0.453) mg/dL
change from baseline in unadjusted TSB, LS Mean Difference versus placebo [13]: -0.65 mg/dL
change from baseline in adjusted TSB, LS mean difference versus placebo, MMRM (4.5 mg/kg IM, 12 h): −8.38%
change from baseline in adjusted TSB, LS means (SEM), MMRM (4.5 mg/kg IM, 12 h): −2.41 (3.856) %
adjusted TSB, Mean (SD) (4.5 mg/kg IM, 24 h, LOCF): −24.66 (15.145) %
change from baseline in adjusted TSB, Mean (SD) (4.5 mg/kg IM, 24 h, LOCF): −15.48 (18.694) %
